Source: patent publication US20110054034A1, “METHODS OF USING […] AS ANTIMICROBIAL AGENTS” (priority 2008, published 2011)

Tests used:
Format in all cases: in vivo
badly infected wound = assay: Treating a systemic infection in a dog (infected wound); details: 15 kg dog, 300 mg twice a day mixed in food
Method: A 15 kg dog with a badly infected wound is given 300 mg twice a day mixed in his food of trans-3-(naphth-2-yl)-but-2-enoic acid-N-(2-carboxyphenyl)amide. After 2 days the wound looks better and after 5 days it is almost healed.

S. aureus = assay: Treating a systemic infection in a human; details: two 300 mg tablets three daily
Method: A 70 kg person has a 102° fever and a bad cough. An internist diagnoses their problem as a systemic gram+bacterial infection of S. aureus. They prescribe trans-3-(naphth-2-yl)but-2-enoic acid-N-(2-carboxyphenyl)amide with the directions to take two 300 mg tablets three daily which the patient does.

[1] = tested on: gram+bacterial infection on the skin; assay: Treating a topical infection in a human; details: 2.5% cream applied twice daily, after about 4 days
Text: A 50 kg person is diagnosed by a dermatologist with a gram+bacterial infection on the skin of their left foot. They prescribed a 2.5% cream of 5-bromo-2-[[(2E)-3-(2-naphthalenyl)-1-oxo-2-butenyl]amino]benzoic acid which they applied twice daily.

For `C/C(=C\C(=O)Nc1ccccc1C(=O)O)c1ccc2ccccc2c1` [trans-3-(naphth-2-yl)-but-2-enoic acid-N-(2-carboxy-phenyl)-amide], the “appearance of the infected wound” value (badly infected wound; after 2 days) was “looks better”, the “healing of the infected wound” value (badly infected wound; after 5 days) was “almost healed” and the cough (S. aureus; after five days) was “cough is gone”. For the same compound, the temperature (S. aureus; after five days) was “temperature is normal” and the fever (S. aureus; after two days) was “the fever comes down”.
For `C/C(=C\C(=O)Nc1ccc(Br)cc1C(=O)O)c1ccc2ccccc2c1` [5-bromo-2-[[(2E)-3-(2-naphthalenyl)-1-oxo-2-butenyl]amino]benzoic acid], the “appearance of the skin” value [1] was “appears normal” and the “gram+bacterial infection on the skin of the foot” value [1] was “the infection was gone”.
